pKi: −log10 of the molar value. The source made the active and inactive calls. The calls are words filed in the database; no cut-off is given here.
Assays:
HT-1080 [1] = test: Growth inhibition of human HT1080 cells at 2.5 uM after 72 hrs by SRB assay relative to control; assay type: functional; details: HT-1080, 72 h, read-out: GI
U-87 MG = test: Growth inhibition of human U87MG cells at 2.5 uM after 72 hrs by SRB assay relative to control; assay type: functional, U-87MG ATCC; details: read-out: GI
U2OS = test: Growth inhibition of human U2OS cells at 2.5 uM after 72 hrs by SRB assay relative to control; assay type: functional; details: read-out: GI
HT-1080 [2] = test: Effect on growth factor mRNA expression in human HT1080 cells assessed as FGF1 mRNA level at 2.5 uM after 24 hrs by qPCR method (reference value: 100%); assay type: functional
HT-1080 [3] = test: Effect on growth factor mRNA expression in human HT1080 cells assessed as VEGF mRNA level at 2.5 uM after 24 hrs by qPCR method (reference value: 100%); assay type: functional
HT-1080 [4] = test: Effect on growth factor mRNA expression in human HT1080 cells assessed as FGF2 mRNA level at 2.5 uM after 24 hrs by qPCR method (reference value: 100%); assay type: functional
HT-1080 [5] = test: Effect on MMP9 mRNA expression in human HT1080 cells assessed as MMP9 mRNA level at 2.5 uM after 24 hrs by qPCR method (reference value: 100%); assay type: functional
HT-1080 [6] = test: Effect on HPSE1 mRNA expression in human HT1080 cells assessed as HPSE1 mRNA level at 2.5 uM after 24 hrs by qPCR method (reference value: 100%); assay type: functional
Heparanase = target: T1, Heparanase (Mus musculus, UniProt Q6YGZ1); test: Inhibition of mouse B16-BL6 cells derived heparanase using [3H]HS as substrate after 6 hrs by size exclusion chromatography based liquid scintillation counting method
T1 sequence (Q6YGZ1 whole entry): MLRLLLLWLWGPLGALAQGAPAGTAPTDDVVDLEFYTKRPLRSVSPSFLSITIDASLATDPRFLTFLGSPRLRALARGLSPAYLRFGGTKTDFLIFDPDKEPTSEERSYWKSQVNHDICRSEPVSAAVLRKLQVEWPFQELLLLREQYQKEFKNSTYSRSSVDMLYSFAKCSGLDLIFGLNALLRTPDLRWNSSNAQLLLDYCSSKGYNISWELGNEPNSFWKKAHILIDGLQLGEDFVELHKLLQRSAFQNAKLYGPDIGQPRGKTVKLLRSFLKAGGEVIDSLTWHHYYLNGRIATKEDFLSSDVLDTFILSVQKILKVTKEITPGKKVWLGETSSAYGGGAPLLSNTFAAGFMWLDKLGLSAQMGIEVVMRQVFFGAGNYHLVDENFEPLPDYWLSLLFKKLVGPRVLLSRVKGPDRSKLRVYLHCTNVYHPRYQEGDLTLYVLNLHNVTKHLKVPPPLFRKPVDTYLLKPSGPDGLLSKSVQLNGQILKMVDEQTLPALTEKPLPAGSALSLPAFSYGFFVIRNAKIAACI

HT-1080 [7] = details: Homo sapiens, 2.5 uM
Description: Inhibition of cell adhesion in human HT1080 cells at 2.5 uM incubated for 18 to 20 hrs by crystal violet staining based assay

HT-1080 [8] = test: Anti-invasive activity against human HT1080 cells at 2.5 uM incubated for 24 hrs measured for 24 hrs by crystal violet staining based inverted microscopic method relative to control; assay type: functional

Question: Which inhibition of growth at 2.5 µM (HT-1080 [1]) does the source give for Cc1ccc(C(=O)Nc2ccc3c(S(=O)(=O)O)cccc3c2S(=O)(=O)O)cc1NC(=O)c1cc(NC(=O)Nc2cc(C(=O)Nc3cc(C(=O)Nc4ccc5c(S(=O)(=O)O)cccc5c4S(=O)(=O)O)ccc3C)n(C)c2)cn1C here?
Answer: Its inhibition of growth at 2.5 µM is < 50%.

Question: What about the inhibition of growth at 2.5 µM (U-87 MG) of the same compound?
Answer: Its inhibition of growth at 2.5 µM is < 50%.

Question: What about the inhibition of growth at 2.5 µM (U2OS) of the same compound?
Answer: The inhibition of growth at 2.5 µM was < 50%.

Question: Cn1cc(NC(=O)Nc2cc(C(=O)Nc3cc(C(=O)Nc4ccc5c(S(=O)(=O)[O-])cccc5c4S(=O)(=O)[O-])n(C)c3)n(C)c2)cc1C(=O)Nc1cc(C(=O)Nc2ccc3c(S(=O)(=O)[O-])cccc3c2S(=O)(=O)[O-])n(C)c1.[Na+].[Na+].[Na+].[Na+] was tested. Which Activity (HT-1080 [2]) did it give?
Answer: Its Activity is 44%.

Question: And the Activity (HT-1080 [3])?
Answer: Its Activity is 100%.

Question: And the Activity (HT-1080 [4])?
Answer: Its Activity is 86%.

Question: And the Activity (HT-1080 [5])?
Answer: The Activity was 100%.

Question: What about the Activity (HT-1080 [6]) of the same compound?
Answer: Its Activity is 1%.

Question: With Cn1cc(NC(=O)c2cc(NC(=O)Nc3cc(C(=O)Nc4cc(C(=O)Nc5ccc6c(S(=O)(=O)O)cccc6c5S(=O)(=O)O)n(C)c4)cc(C(F)(F)F)c3)cc(C(F)(F)F)c2)cc1C(=O)Nc1ccc2c(S(=O)(=O)O)cccc2c1S(=O)(=O)O as the compound, how does the inhibition of growth at 2.5 µM (HT-1080 [1]) read?
Answer: The inhibition of growth at 2.5 µM was < 50%.

Question: And the inhibition of growth at 2.5 µM (U-87 MG)?
Answer: The inhibition of growth at 2.5 µM was < 50%.

Question: What about the inhibition of growth at 2.5 µM (U2OS) of the same compound?
Answer: Its inhibition of growth at 2.5 µM is < 50%.

Question: Which inhibition of growth at 2.5 µM (HT-1080 [1]) does the source give for Cc1c(NC(=O)c2cccc(NC(=O)Nc3cccc(C(=O)Nc4cc(C(=O)Nc5ccc6c(S(=O)(=O)O)cccc6c5S(=O)(=O)O)n(C)c4C)c3)c2)cc(C(=O)Nc2ccc3c(S(=O)(=O)O)cccc3c2S(=O)(=O)O)n1C here?
Answer: The inhibition of growth at 2.5 µM was < 50%.

Question: And the inhibition of growth at 2.5 µM (U-87 MG)?
Answer: Its inhibition of growth at 2.5 µM is < 50%.

Question: What about the inhibition of growth at 2.5 µM (U2OS) of the same compound?
Answer: Its inhibition of growth at 2.5 µM is < 50%.

Question: Which results are given for Cn1cc(NC(=O)c2ccc(F)c(NC(=O)Nc3cc(C(=O)Nc4cc(C(=O)Nc5ccc6c(S(=O)(=O)O)cccc6c5S(=O)(=O)O)n(C)c4)ccc3F)c2)cc1C(=O)Nc1ccc2c(S(=O)(=O)O)cccc2c1S(=O)(=O)O?
Answer: inhibition of growth at 2.5 µM (HT-1080 [1]): < 50%; inhibition of growth at 2.5 µM (U-87 MG): < 50%; inhibition of growth at 2.5 µM (U2OS): < 50%

Question: What does the source list for Cn1cc(NC(=O)c2cccc(NC(=O)Nc3cccc(C(=O)Nc4cc(C(=O)Nc5ccc6c(S(=O)(=O)O)cccc6c5S(=O)(=O)O)n(C)c4)c3)c2)cc1C(=O)Nc1ccc2c(S(=O)(=O)O)cccc2c1S(=O)(=O)O?
Answer: inhibition of growth at 2.5 µM (HT-1080 [1]): < 50%; inhibition of growth at 2.5 µM (U-87 MG): < 50%; inhibition of growth at 2.5 µM (U2OS): < 50%

Question: Cc1ccc(C(=O)Nc2ccc(S(=O)(=O)O)c3cc(S(=O)(=O)O)cc(S(=O)(=O)O)c23)cc1NC(=O)c1cccc(NC(=O)Nc2cccc(C(=O)Nc3cc(C(=O)Nc4ccc(S(=O)(=O)O)c5cc(S(=O)(=O)O)cc(S(=O)(=O)O)c45)ccc3C)c2)c1 [SURAMIN] was tested. Which pKi (Heparanase) did it give?
Answer: The pKi was 4.32.

Question: Cn1cc(NC(=O)Nc2cc(C(=O)Nc3cccc(C(=O)Nc4ccc5c(S(=O)(=O)[O-])cccc5c4S(=O)(=O)[O-])c3)n(C)c2)cc1C(=O)Nc1cccc(C(=O)Nc2ccc3c(S(=O)(=O)[O-])cccc3c2S(=O)(=O)[O-])c1.[Na+].[Na+].[Na+].[Na+] was tested. Which Activity (HT-1080 [2]) did it give?
Answer: Its Activity is 87%.

Question: What about the inhibition (HT-1080 [7]) of the same compound?
Answer: Its inhibition is “Active”.

Question: What about the inhibition of growth at 2.5 µM (HT-1080 [1]) of the same compound?
Answer: Its inhibition of growth at 2.5 µM is < 50%.

Question: What about the Activity (HT-1080 [8]) of the same compound?
Answer: The Activity was >90%.

Question: And the Activity (HT-1080 [3])?
Answer: The Activity was 85%.

Question: And the inhibition of growth at 2.5 µM (U-87 MG)?
Answer: The inhibition of growth at 2.5 µM was < 50%.

Question: What about the Activity (HT-1080 [4]) of the same compound?
Answer: Its Activity is 98%.

Question: What about the inhibition of growth at 2.5 µM (U2OS) of the same compound?
Answer: The inhibition of growth at 2.5 µM was < 50%.

Question: And the Activity (HT-1080 [5])?
Answer: Its Activity is 80%.

Question: What about the Activity (HT-1080 [6]) of the same compound?
Answer: The Activity was 4%.

Question: How did the inhibition of growth at 2.5 µM (HT-1080 [1]) turn out when O=C(Nc1cccc(C(=O)Nc2cc(C(=O)Nc3ccc4c(S(=O)(=O)O)cccc4c3S(=O)(=O)O)n(C3CC3)c2)c1)Nc1cccc(C(=O)Nc2cc(C(=O)Nc3ccc4c(S(=O)(=O)O)cccc4c3S(=O)(=O)O)n(C3CC3)c2)c1 was run?
Answer: The inhibition of growth at 2.5 µM was < 50%.

Question: And the inhibition of growth at 2.5 µM (U-87 MG)?
Answer: Its inhibition of growth at 2.5 µM is < 50%.

Question: And the inhibition of growth at 2.5 µM (U2OS)?
Answer: The inhibition of growth at 2.5 µM was < 50%.
